# Experimental data reported in paper PMC6642116, “Structural and functional analyses of hepatitis B virus X protein BH3-like domain and Bcl-xL interaction” (Nature Communications, 2019).
# Experiments:
# caspase-3 (CASP3) = test: Caspase-3 proteolytic activation in HepG2.2.15 cells (immunoblot); assay type: cell-based; conditions: HepG2.2.15, 2 days
# Procedure: (§1) Fig. 6 The HBx-aa118–127 peptide, but not ABT-263, inhibits HBV replication and transcription in HepG2.2.15 cells. a HepG2.2.15 cells were treated with 125, 250, 500, and 1000 nM of ABT-263 for 2 days. Cytoplasmic HBV viral particles were isolated and the viral DNA replication intermediates were quantified (Methods). The results represent the fold change of the replicative intermediates in HepG2.2.15 cells from the indicated treatments, compared with those without treatment. b HepG2.2.15 cells were treated with the indicated concentrations of ABT-263 for 2 days. The lysate was analyzed by immunoblotting using antibodies to caspase-3 (CASP3) and GAPDH (glyceraldehyde 3-phosphate dehydrogenase). c, d The HBx-aa113–135, HBx-aa118–127, or the control peptides were delivered into HepG2.2.15 cells using PEP-1 nanoparticles (Methods). The levels of HBV DNA (c) and the levels of HBV S-antigen (HBsAg) expression (d) in culture medium collected from HepG2.2.15 cells were measured (Methods). The results are shown as fold change compared to that of the control peptide. e–g HepG2-NTCP cells were transfected with HBx118–127 peptide with concentration of […], and 50 μg/ml or unrelated control peptide during HBV infection (multiplicity of infection (MOI) = 200), respectively. e HBV e-antigen (HBeAg), f HBV DNA, and g cell viability were measured at day 8 after HBV infection. […]
# Bcl-xL = target: T1, Bcl-xL (Homo sapiens, UniProt Q07817, DEL27-82); conditions: cited from earlier work
# T1 construct: 6xHis-SUMO (N, cleaved yes); made in house; host or cells: Escherichia coli BL21(DE3)
# [1] = system: HBV DNA in HepG2.2.15 cells; test: HBV DNA replication in HepG2.2.15 cells treated with ABT-263 or ABT-737; assay type: cell-based; conditions: for HBV DNA: 2 days; for inhibition of HBV DNA replication (in words): 125-1000 nM, 48 h
# Procedure: as §1, with “infection. Data shown represent mean ± SD. Significance is indicated on the top. Not significant (ns): *P < 0.05, **P < 0.01; two-tailed unpaired t tests (n = 3 biologically independent samples). Source data are provided as a Source Data file” for “infection.”
# ABT-263 and ABT-737, the picomolar BH3 mimetics, were purchased from Apexbt Technology LLC (Houston, TX, USA). HepG2.2.15 cells were treated with 125, 250, 500, and 1000 nM of ABT-263 or ABT-737 for 48 h. Cytoplasmic HBV viral particles and HBV DNA were then isolated for quantification.
# ABT-263 or ABT-737 for two days. Cytoplasmic HBV viral particles were isolated and the viral DNA replication intermediates were quantified by real-time PCR using a specific primer set targeting HBS ORF (Materials and Methods). The results represent the fold change of the replicative intermediates in HepG2.2.15 cells from the indicated treatments, compared with those without treatment. b HepG2.2.15 cells were treated with the indicated concentrations of ABT-263 or ABT-737 for two days. The lysate was analyzed by immunoblotting using antibodies to Caspase-3 (CASP3) and GAPDH.
# Data shown represent mean ± SD. Significance is indicated on the top. Not significant (ns): P > 0.05; two-tailed unpaired t-tests. Source data are provided as a Source Data […]
# (1 picture or pasted object on this page, not shown here)
# HBV in HepG2.2.15 cells = test: Combination of HBx118–127 and ABT-263 on HBV in HepG2.2.15 cells; assay type: cell-based; conditions: ABT-263 1 μM, HBx118–127 via PEP-1; for HBV DNA: HepG2.2.15 culture medium, 48 h in total; for HBV DNA / HBeAg in culture medium / HBsAg in culture medium / Intracellular HBcAg: sequential: ABT-263 12 h then HBx118–127 36 h; for HBeAg in culture medium / HBsAg in culture medium / Intracellular HBcAg: HepG2.2.15, 48 h in total
# Procedure: In all panels, from left to right (bars 1–5), cells were treated with placebo buffer, HBx118–127 only, ABT-263 only, HBx118–127 and ABT-263 together, and ABT-263, followed by HBx118–127, respectively. The cells in bars 1–4 were treated for 48 h, whereas the cells in bar 5 were first treated by ABT-263 for 12 h, followed by treatment with HBx118–127 for another 36 h. The final concentration of ABT-263 was 1 μM in the culture medium, while HBx-aa118–127 was delivered by PEP-1 nanoparticles. After 48-h treatment, the protein expression levels of HBV S-antigen (HBsAg) (a) and HBV e-antigen (HBeAg) (b) in the culture medium, the intracellular protein expression level of HBV core antigen (HBcAg) (c), and the HBV viral DNA tilter (d) in the culture medium of HepG2.2.15 cells were measured (Methods). The results are shown as fold changes compared to the values obtained from the cells treated with the placebo buffer. Data shown represent mean ± SD. Significance is indicated on the top. Not significant (ns): *P < 0.05, **P < 0.01, ***P < 0.001; two-tailed unpaired t tests (n = 3 biologically independent samples). Source data are provided as a Source Data file
# The levels of HBsAg, HBeAg, and HBcAg expression were measured by chemiluminescence, using Commercial Assay Kit (Wantai, Beijing, China). Northern blot analysis of HBV RNA, Southern blot analysis of HBV DNA, and real-time PCR quantification of HBV DNA are described in the Supplementary Methods.
# T1 sequence (Q07817 with tags, fused parts or gaps DEL27-82 limits assumed): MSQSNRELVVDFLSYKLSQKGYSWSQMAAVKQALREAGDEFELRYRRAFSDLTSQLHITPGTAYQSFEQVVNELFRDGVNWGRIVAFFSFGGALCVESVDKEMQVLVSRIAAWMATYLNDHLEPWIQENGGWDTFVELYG
Compound,proteolytic activation of caspase-3 (in words) (caspase-3 (CASP3)),reported Bcl-xL inhibitor potency (in words) (Bcl-xL),"HBV DNA ([1]; 125 nM, replicate 1)","HBV DNA ([1]; 125 nM, replicate 2)","HBV DNA ([1]; 125 nM, replicate 3)","HBV DNA ([1]; 250 nM, replicate 1)","HBV DNA ([1]; 250 nM, replicate 2)","HBV DNA ([1]; 250 nM, replicate 3)","HBV DNA ([1]; 500 nM, replicate 1)","HBV DNA ([1]; 500 nM, replicate 2)","HBV DNA ([1]; 500 nM, replicate 3)","HBV DNA ([1]; 1000 nM, replicate 1)","HBV DNA ([1]; 1000 nM, replicate 2)","HBV DNA ([1]; 1000 nM, replicate 3)",inhibition of HBV DNA replication (in words) [1],further results
CN(C)CC[C@H](CSc1ccccc1)Nc1ccc(S(=O)(=O)NC(=O)c2ccc(N3CCN(Cc4ccccc4-c4ccc(Cl)cc4)CC3)cc2)cc1[N+](=O)[O-] [ABT-737],induced significant proteolytic activation of caspase-3,picomolar,1.000 fold change to non-treatment,0.986 fold change to non-treatment,0.979 fold change to non-treatment,1.110 fold change to non-treatment,1.035 fold change to non-treatment,1.007 fold change to non-treatment,0.953 fold change to non-treatment,1.000 fold change to non-treatment,1.021 fold change to non-treatment,0.993 fold change to non-treatment,1.021 fold change to non-treatment,1.021 fold change to non-treatment,did not inhibit HBV DNA replication,–
CC1(C)CCC(c2ccc(Cl)cc2)=C(CN2CCN(c3ccc(C(=O)NS(=O)(=O)c4ccc(N[C@H](CCN5CCOCC5)CSc5ccccc5)c(S(=O)(=O)C(F)(F)F)c4)cc3)CC2)C1 [ABT-263],induced significant proteolytic activation of caspase-3,picomolar,0.966 fold change to non-treatment,1.035 fold change to non-treatment,1.028 fold change to non-treatment,1.021 fold change to non-treatment,0.966 fold change to non-treatment,0.946 fold change to non-treatment,1.021 fold change to non-treatment,0.973 fold change to non-treatment,0.966 fold change to non-treatment,1.000 fold change to non-treatment,0.940 fold change to non-treatment,0.940 fold change to non-treatment,did not inhibit HBV DNA replication,HBV DNA (HBV in HepG2.2.15 cells; replicate 1): 1.089 fold-change to control; HBV DNA (HBV in HepG2.2.15 cells; replicate 2): 1.052 fold-change to control; HBV DNA (HBV in HepG2.2.15 cells; replicate 3): 0.924 fold-change to control; HBeAg in culture medium (HBV in HepG2.2.15 cells; replicate 1): 1.047 fold-change to control; HBsAg in culture medium (HBV in HepG2.2.15 cells; replicate 1): 0.956 fold-change to control; Intracellular HBcAg (HBV in HepG2.2.15 cells; replicate 1): 0.979 fold-change to control; HBeAg in culture medium (HBV in HepG2.2.15 cells; replicate 2): 0.911 fold-change to control; HBsAg in culture medium (HBV in HepG2.2.15 cells; replicate 2): 0.938 fold-change to control; Intracellular HBcAg (HBV in HepG2.2.15 cells; replicate 2): 0.909 fold-change to control; HBeAg in culture medium (HBV in HepG2.2.15 cells; replicate 3): 0.937 fold-change to control; HBsAg in culture medium (HBV in HepG2.2.15 cells; replicate 3): 0.832 fold-change to control; Intracellular HBcAg (HBV in HepG2.2.15 cells; replicate 3): 0.921 fold-change to control; effect on HBV replication (in words) (HBV in HepG2.2.15 cells; HepG2.2.15): did not affect HBV replication
